Test results: PubChem BioAssay (NCI)
Values joined by “and” are separate entries in the source; they are usually repeats but may differ in a detail not shown here. Identical values can stand only once.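 96-well plates; 48 h exposure; 5 concentrations. Endpoints by linear interpolation between flanking doses. Not reached: highest tested concentration assigned. Abbreviation: GI50, concentration required for 50% inhibition of growth. TGI marks complete inhibition of growth.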

Tests used:
Experiment in all cases: NCI-60 cell line screen, 48 h
SF-539 CNS = system: SF-539 CNS
ACHN renal = system: ACHN renal
NCI-H23 lung = system: NCI-H23 lung
786-0 renal = system: 786-0 renal
MALME-3M melanoma = system: MALME-3M melanoma
HCT-15 colon = system: HCT-15 colon
MDA-MB-231 breast = system: MDA-MB-231 breast
CCRF-CEM leukemia = system: CCRF-CEM leukemia
OVCAR-4 ovarian = system: OVCAR-4 ovarian
HL-60(TB) leukemia = system: HL-60(TB) leukemia

Row | Structure (SMILES) | GI50 (SF-539 CNS) | TGI (SF-539 CNS) [µM] | TGI (ACHN renal) | GI50 (NCI-H23 lung) | TGI (786-0 renal) [µM] | TGI (MALME-3M melanoma) | GI50 (HCT-15 colon) | GI50 (MDA-MB-231 breast) [µM] | TGI (MDA-MB-231 breast) [µM] | TGI (CCRF-CEM leukemia) [µM] | GI50 (OVCAR-4 ovarian) [µM] | TGI (OVCAR-4 ovarian) [µM] | GI50 (HL-60(TB) leukemia) | TGI (HL-60(TB) leukemia) [µM] | TGI (NCI-H23 lung) [µM] | TGI (HCT-15 colon) [µM]
1 | CC[C@@]1(O)C(=O)OCc2c1cc1n(c2=O)Cc2c-1nc1ccccc1c2C=Nc1ccccc1N[C@@H]1c2cc3c(cc2[C@@H](c2cc(OC)c(O)c(OC)c2)[C@H]2C(=O)OC[C@@H]21)OCO3 | 0.0228 µM and < 0.005 µM | 0.239 | 0.961 µM and 0.171 µM | 0.0356 µM and 0.0156 µM | 0.339 | 25.6 µM and 3.78 µM | 0.88 µM and 0.19 µM | 7.04 | > 49.8 | > 100 | 17.2 | > 62.6 | 0.0325 µM and 0.192 µM | > 100 |  | 
2 | CN(/N=C\c1ccc2ccccc2c1)C1=NCCCN1 |  | 40.3 | 35.9 µM |  | 29.1 | 26.4 µM |  |  | 34.5 | 48.6 |  | > 100 |  | 37.4 | > 100 | 74.4
3 | Clc1ccc(C2=NCON=C2c2ccc(Cl)cc2)cc1 |  | 35.5 | 54.9 µM |  | 42.7 | 27.7 µM |  |  | 43.7 | 53.1 |  | > 100 |  | 30.9 | 44.3 | 50.6
4 | COc1ccc(N=Nc2c(N)nn3c(SC)c(C#N)c(N)nc23)cc1 |  | 34.6 | 28 µM |  | 14.2 | 31.7 µM |  |  | 7.02 | 4.84 |  | 35 |  | 6.07 | 21.1 | 26.4
5 | C=CCNC1=C2C[C@@H](C)C[C@@H](OC)[C@H](OC(=O)CCN(C)C)[C@H](C)/C=C(\C)[C@@H](OC(N)=O)[C@H](OC)/C=C\C=C(/C)C(=O)NC(=CC1=O)C2=O |  | 16.8 | 22.2 µM |  | 21.2 | 19.2 µM |  |  | 8.89 | > 55.3 |  | 26.7 |  | 11.7 | 17.1 | 19.9
6 | CCC1CN2CCc3c([nH]c4ccccc34)[C@@](C(=O)OC)(c3cc4c(cc3OC)N(C)C3C(O)(C(=O)OC)C(C(=O)OC)C5(CC)C=CCN6CCC43C65)C[C@@H](C2)[C@@H]1C(C)(C)C (stereo partly specified) |  | 2.31 | > 10 µM |  | 7.16 | 2.95 µM |  |  | 3.42 | > 5.53 |  | > 10 |  | 1.23 | > 6.31 | 2.82
7 | COc1cc2c(cc1OC)C(=O)N(c1ccc(OCCN3CCCC3)cc1)C2=O |  | > 100 | > 100 µM |  | > 100 | > 100 µM |  |  | > 100 | > 100 |  | > 100 |  | > 100 | > 100 | > 100
8 | Cc1ccccc1Nc1nc2ccccc2nc1NS(=O)(=O)c1ccccc1 |  | > 100 | > 100 µM |  | > 100 | > 100 µM |  |  | > 100 | > 100 |  | > 100 |  | > 100 | > 100 | > 100
9 | c1ccc(Nc2nnc(CCCCCCCCc3nnc(Nc4ccccc4)o3)o2)cc1 |  | > 100 | > 100 µM |  | > 100 | > 100 µM |  |  | > 100 | > 100 |  | > 100 |  | > 100 | > 100 | > 100
10 | CC(=O)N1c2cc(N=NN(C)C)ccc2NC(=O)CC1C (stereo unspecified) |  |  | > 100 µM |  | > 100 | > 100 µM |  |  | > 100 | > 100 |  | > 100 |  | > 100 | > 100 | > 100
11 | Cc1ccc(NCCN(C)C)c2c(=O)c3cc(O)ccc3sc12 |  | 10.4 | 7.31 µM |  | 9.07 | 11.2 µM |  |  | 4.6 | 5.7 |  | 14.1 |  | 6.07 | 16.8 | 9.99
12 | O=S(=O)(O)c1cc(O)c(N=Nc2ccc3ccccc3c2O)c2ccccc12 |  |  | > 100 µM |  | > 100 | 9.66 µM |  |  | 94.7 | > 100 |  | > 100 |  | > 100 | 30.8 | > 100
13 | COc1cc2c(cc1OC)C(=O)/C(=C/c1ccc(N(C)C)cc1)CC2 |  | > 10 | > 10 µM |  | > 10 | > 10 µM |  |  | > 10 | > 10 |  | > 10 |  | > 10 | > 10 | > 10
14 | CC(C)[C@@H]1NC(=O)[C@@H]2N=C(O[C@H]2C)[C@H](C(C)C)NC(=O)C2N=C1O[C@H]2C |  | > 100 | > 100 µM |  | > 100 | > 100 µM |  |  | > 100 | > 100 |  | > 100 |  | > 100 | > 100 | > 100
15 | CC1CCCN1CCCOC(=O)c1ccc(OC2C=CCCC2)cc1 (stereo unspecified) |  | 74.9 | > 100 µM |  | 40.4 | 34.4 µM |  |  | 47.8 | 66.7 |  | > 100 |  | 35.6 | 63.3 | 53
16 | Cc1cc2occ(S(=O)(=O)NC(=O)Nc3ccc(Cl)cc3)c(=O)c2c(=O)o1 |  | > 100 | > 100 µM |  | > 100 | > 100 µM |  |  | > 100 | > 100 |  | > 100 |  | > 100 | > 100 | > 100
17 | O=C1C=C/C(=C/[C@H]2SSC=C[C@]23C=CC(=O)C3)C1 |  | 61.3 | 55.5 µM |  | 28.7 | 41.5 µM |  |  | > 83.1 | 9.27 |  | > 74.2 |  | 15.1 | 44.1 | 48.2

Row | Structure (SMILES) | GI50 (SF-539 CNS) | TGI (SF-539 CNS) [µM] | TGI (ACHN renal) | GI50 (NCI-H23 lung) | TGI (786-0 renal) [µM] | TGI (MALME-3M melanoma) | GI50 (HCT-15 colon) | GI50 (MDA-MB-231 breast) [µM] | TGI (MDA-MB-231 breast) [µM] | TGI (CCRF-CEM leukemia) [µM] | GI50 (OVCAR-4 ovarian) [µM] | TGI (OVCAR-4 ovarian) [µM] | GI50 (HL-60(TB) leukemia) | TGI (HL-60(TB) leukemia) [µM] | TGI (NCI-H23 lung) [µM] | TGI (HCT-15 colon) [µM]
18 | Cc1ccc(-n2cc(-c3ccc(Cl)cc3)c3c(=N)n(N)cnc32)cc1 |  | 27 | 29.7 µM |  | 24.4 | 26.1 µM |  |  | 25.3 | 51.4 |  | 22.5 |  | 31.7 | 30.3 | 28.9
19 | O=C1C2CC[C@@H]3C(=O)C(Cl)(Cl)[C@@H]3CCC2C1(Cl)Cl (stereo partly specified) |  | > 90.5 | > 100 µM |  | > 100 | > 100 µM |  |  | > 100 | 63.8 |  | > 100 |  | 16.7 | > 100 | > 100
20 | CC(NNC(=O)c1ccncc1)c1ccc(Cl)cc1Cl (stereo unspecified) |  | > 100 | > 100 µM |  | > 100 | > 100 µM |  |  | > 100 | > 100 |  | > 100 |  | > 100 | > 100 | > 100
21 | N#CC(NNC(=O)c1ccccc1O)c1c(O)ccc2ccccc12 (stereo unspecified) |  | 23.1 | 22.2 µM |  | 58.8 | 27.6 µM |  |  | 27.7 | > 90.9 |  | 23.3 |  | 12.2 | 20.8 | 32.8
22 | Cc1cc(C)nc(NS(=O)(=O)c2ccc(Nc3c4ccccc4nc4ccc(C(=O)Nc5ccc(S(=O)(=O)N=C(N)N)cc5)cc34)cc2)n1 |  | > 100 | > 100 µM |  | 53 | > 100 µM |  |  | > 100 | > 100 |  | > 100 |  | > 100 | > 100 | > 100
23 | COc1cccc(CCCNC(=O)Cc2ccccc2CO)c1 |  | > 100 | > 100 µM |  | > 100 | > 100 µM |  |  | > 100 | > 100 |  | > 100 |  | > 100 | > 100 | > 100
24 | O=C(O)CCC1NC(/C(=C/c2ccccc2O)NC(=O)c2ccccc2)OC1=O (stereo unspecified) |  | > 100 | > 100 µM |  | > 100 | > 100 µM |  |  | > 100 | > 100 |  | > 100 |  | > 100 | > 100 | > 100
25 | C/C(Nc1ccc(Cl)cc1)=C1/CCOC1=O |  | > 100 | > 100 µM |  | > 100 | > 100 µM |  |  | > 100 | > 100 |  | > 100 |  | > 100 | > 100 | > 100
26 | O=C1c2ccccc2C(=O)c2sc(Nc3cc(Cl)ccc3Cl)nc21 |  | 13.4 | 19 µM |  | 22.6 | 3.33 µM |  |  | 5.56 | > 100 |  | 18.2 |  | 4.89 | 28.7 | 9.48
27 | CCCCCCCc1ccc(-c2nnc(N=Nc3ccc(OCCCCC)cc3)s2)s1 |  | > 100 | > 100 µM |  | > 100 | > 100 µM |  |  | > 100 | > 100 |  | > 100 |  | > 100 | > 100 | > 100
28 | c1ccc(-c2c(-c3[nH]c4ccccc4c3-c3ccccc3)[nH]c3ccccc23)cc1 |  | 21.3 | 11.6 µM |  | 4.08 | 31.2 µM |  |  | 13.8 | 14 |  | 8.78 |  | 11.1 | 6.68 | 14.3
29 | COC(=O)[C@@H]1COC(=O)N1 |  | > 100 | > 100 µM |  | > 100 | > 100 µM |  |  | > 100 | > 100 |  | > 100 |  | > 100 | > 100 | > 100
30 | CCc1cc2c(c3c1CCCC3=O)CC1(C2)Cc2cc(CC)c3c(c2C1)C(=O)CCC3 |  | > 100 | > 100 µM |  | > 100 | > 100 µM |  |  | > 100 | > 100 |  | > 100 |  | > 100 | > 100 | > 100
31 | COc1ccc(CC[N+]2(C)COc3cc4oc(=O)cc(C)c4cc3C2)cc1OC (stereo unspecified) |  |  | > 100 µM |  | > 100 | > 100 µM |  |  | > 100 | > 100 |  | > 100 |  | > 100 | > 100 | > 100
32 | C=CCOC(=O)N1c2ccc(O)cc2[C@@]23O[C@@]24[C@@H]1C#C/C=C\C#C[C@]3(O)C(=O)C[C@@H]4C |  | > 100 | > 100 µM |  | > 100 | > 100 µM |  |  | > 100 | > 100 |  | 50.1 |  | > 100 | > 100 | > 100
33 | CC(=O)O[C@H]1C(=O)[C@@]2(C)[C@H]([C@H](OC(=O)c3ccco3)[C@]3(O)C[C@H](OC(=O)[C@H](O)[C@@H](NC(=O)c4ccccc4)c4ccccc4)C(C)=C1C3(C)C)[C@]1(OC(C)=O)CO[C@@H]1C[C@@H]2O |  | 0.371 | > 25 µM |  | > 25 | > 25 µM |  |  | > 25 | 0.837 |  | > 25 |  | 0.123 | > 25 | > 25
34 | CCOC(=O)C1C(c2ccc(OC)cc2)c2c([nH]n(-c3ccccc3)c2=O)CC1(C)O (stereo unspecified) |  | > 100 | > 100 µM |  | > 100 | > 100 µM |  |  | > 100 | 35.6 |  | > 100 |  | 11.1 | > 100 | > 100
